According to patent publication US20110152314A1, “USE OF TENATOPRAZOLE FOR THE TREATMENT OF GASTROESOPHAGEAL REFLUX DISEASE” (SIDEM PHARMA, priority 2002, published 2011):
Read-outs that look alike come from different tables or passages of the source.

Columns and labels:
Type in all cases: in vivo, human
[1] = Phase I study, pharmacokinetic parameters after oral single dose and daily dose for 7 days; conditions: for AUC(0-t) / Cmax at 7 days / Tmax at 7 days / half-life at 7 days / Cmax / Tmax / half-life: human, oral; for AUC(0-t): po, read-out: AUC 0-t area under the curve, between time 0 and the last measurable concentration; for Cmax at 7 days / Cmax: read-out: Cmax maximum concentration; for Tmax at 7 days / Tmax: read-out: Tmax time required to attain maximum concentration
Experimental: The doses tested were 10, 20, 40 and 80 mg of tenatoprazole.
In this table, the abbreviations employed have the following meaning:
Cmax maximum concentration
Tmax time required to attain maximum concentration
T1/2 elimination half-life
AUC0-t area under the curve, between time 0 and the last measurable concentration.
The AUC0-inf value was calculated by extrapolation.

[2] = tested on: patients with gastroesophageal reflux symptoms; experiment: Clinical treatment of patients with gastroesophageal reflux symptoms; conditions: 20 mg tablet daily;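 on Evolution of symptom: one to three plus signs grade improvement from moderate to highly favorable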
Experimental: (§1) Some clinical examples are given below, which show the effects of treatment on patients suffering from gastroesophageal reflux or dyspepsia, treated by the oral administration of tenatoprazole.
Treatment consisted in the daily administration of a tablet containing 20 mg tenatoprazole.

[3] = tested on: patients with symptoms of functional dyspepsia; experiment: Clinical treatment of patients with symptoms of functional dyspepsia; set-up: Safety: key: +: moderate; ++: ranging from moderate to highly favorable; +++: highly favorable; conditions: oral
Excerpt: as §1

[4] = tested on: patients suffering from erosive and/or ulcerative type reflux esophagitis; experiment: Open-labeled studies in reflux esophagitis: endoscopic improvement rating
Experimental: Two open-labeled studies have been conducted in order to evaluate the efficacy and safety of tenatoprazole for gastroesophageal reflux disease. 22 patients in the first study and 24 patients in the second study, of more than 20 years of age, suffering from erosive and/or ulcerative type reflux esophagitis (diagnosed by endoscopy), received tablets containing enteric-coated granules with 10 mg of tenatoprazole.
The tablets were administered orally once a day after breakfast, for a treatment period of 8 weeks, which was continued up to 12 weeks in some cases. Healing was controlled by endoscopic examination 4 weeks and 8 weeks after the first administration, or at the withdrawal from the study, the disease stages were evaluated according to the Savary and Miller classification and the treatment was stopped when healing was confirmed. The condition was evaluated as healed when disappearance of erosion was confirmed.

[5] = in vivo, repeated dose (7 days) 10 mg daily
[6] = in vivo, repeated dose (7 days) 20 mg daily
[7] = in vivo, repeated dose (7 days) 40 mg daily
[8] = in vivo, repeated dose (7 days) 80 mg daily
[9] = patient 30, nocturnal heartburn, 8 weeks
[10] = patient 25, epigastric discomfort, 12 weeks
[11] = patient 28, distension, 4 weeks
[12] = patient 34, early satiety, 8 weeks
[13] = patient 36, epigastric discomfort, 8 weeks
[14] = patient 38, epigastric pain, 8 weeks
[15] = patient 38, sensation of gastric fullness, 8 weeks
[16] = patient 39, epigastric pain, 4 weeks
[17] = patient 42, early satiety, 6 weeks
[18] = patient 45, epigastric pain, 6 weeks
[19] = 1st study, 4 weeks, 10 mg tablet orally once a day
[20] = 1st study, 8 weeks, 10 mg tablet orally once a day
[21] = 1st study, final, 10 mg tablet orally once a day
[22] = 2nd study, 4 weeks, 10 mg tablet orally once a day
[23] = 2nd study, 8 weeks, 10 mg tablet orally once a day
[24] = 2nd study, 12 weeks, 10 mg tablet orally once a day
[25] = 2nd study, final, 10 mg tablet orally once a day

COc1ccc2[nH]c([S+]([O-])Cc3ncc(C)c(OC)c3C)nc2n1 (centres unmarked) [tenatoprazole, 5-methoxy-2-[[(4-methoxy-3,5-dimethyl-2-pyridyl)methyl]sulfinyl]imidazo[4,5-b]pyridine]
AUC(0-t) ([1]; in vivo, 10 mg, repeated dose (7 days) 10 mg daily): 13000 ng·h/mL | AUC(0-t) ([1]; in vivo, 10 mg, single dose 10 mg): 8000 ng·h/mL | AUC(0-t) ([1]; in vivo, 20 mg, repeated dose (7 days) 20 mg daily): 36000 ng·h/mL | AUC(0-t) ([1]; in vivo, 20 mg, single dose 20 mg): 24000 ng·h/mL | AUC(0-t) ([1]; in vivo, 40 mg, repeated dose (7 days) 40 mg daily): 75000 ng·h/mL | AUC(0-t) ([1]; in vivo, 40 mg, single dose 40 mg): 43000 ng·h/mL | AUC(0-t) ([1]; in vivo, 80 mg, repeated dose (7 days) 80 mg daily): 218000 ng·h/mL | AUC(0-t) ([1]; in vivo, 80 mg, single dose 80 mg): 97000 ng·h/mL | Cmax at 7 days [1, 5]: 1600 ng/mL | Tmax at 7 days [1, 5]: 3 h | half-life at 7 days ([1]; in vivo, repeated dose (7 days) 10 mg daily, read-out: T½ elimination half-life (converted)): 300 min | Cmax at 7 days [1, 6]: 3000 ng/mL | Tmax at 7 days [1, 6]: 2 h | half-life at 7 days ([1]; in vivo, repeated dose (7 days) 20 mg daily, read-out: T½ elimination half-life (converted)): 480 min | Cmax at 7 days [1, 7]: 5500 ng/mL | Tmax at 7 days [1, 7]: 3 h | half-life at 7 days ([1]; in vivo, repeated dose (7 days) 40 mg daily, read-out: T½ elimination half-life (converted)): 540 min | Cmax at 7 days [1, 8]: 11800 ng/mL | Tmax at 7 days [1, 8]: 2 h | half-life at 7 days ([1]; in vivo, repeated dose (7 days) 80 mg daily, read-out: T½ elimination half-life (converted)): 552 min | Cmax ([1]; in vivo, single dose 10 mg): 900 ng/mL | Tmax ([1]; in vivo, single dose 10 mg): 4 h | half-life ([1]; in vivo, single dose 10 mg, read-out: T½ elimination half-life (converted)): 300 min | Cmax ([1]; in vivo, single dose 20 mg): 2400 ng/mL | Tmax ([1]; in vivo, single dose 20 mg): 4 h | Cmax ([1]; in vivo, single dose 40 mg): 5300 ng/mL | Tmax ([1]; in vivo, single dose 40 mg): 3 h | half-life ([1]; in vivo, single dose 40 mg, read-out: T½ elimination half-life (converted)): 360 min | Cmax ([1]; in vivo, single dose 80 mg): 8300 ng/mL | Tmax ([1]; in vivo, single dose 80 mg): 3 h | half-life ([1]; in vivo, single dose 80 mg, read-out: T½ elimination half-life (converted)): 420 min | half-life ([1]; plasma, after a single dose, depending on the dose (10-80 mg), read-out: mean elimination half-lives): 300 to 360 min | half-life at 7 days ([1]; plasma, after administration for seven days, depending on the dose (10-80 mg), read-out: mean elimination half-lives): 300 to 570 min | half-life compared with other proton pump inhibitors (omeprazole, esomeprazole) ([1]; in vivo): some seven times longer | dose dependence of Cmax, AUC0-t and AUC0-inf ([1]; single or repeated administration, 10-80 mg): increased in a linear fashion | cases in which treatment was perfectly tolerated ([2]; patients of Table 2): 12 out of 14 | evolution observed in symptoms, overall ([2]; patients of Table 2): generally very favorable | Evolution of symptom ([2]; patient 25, heartburn, 12 weeks): +++ | Evolution of symptom ([2]; patient 28, nocturnal heartburn, 4 weeks): +++ | Evolution of symptom [2, 9]: +++ | Evolution of symptom ([2]; patient 34, heartburn, 8 weeks): +++ | Evolution of symptom ([2]; patient 35, nocturnal heartburn, 4 weeks): ++ | Evolution of symptom ([2]; patient 36, regurgitation, 8 weeks): +++ | Evolution of symptom ([2]; patient 38, heartburn, 8 weeks): +++ | Evolution of symptom ([2]; patient 38, nocturnal heartburn, 8 weeks): +++ | Evolution of symptom ([2]; patient 39, nocturnal heartburn, 4 weeks): + | Evolution of symptom ([2]; patient 41, heartburn, 8 weeks): +++ | Evolution of symptom ([2]; patient 42, heartburn, 8 weeks): ++ | Evolution of symptom ([2]; patient 45, nocturnal heartburn, 8 weeks): +++ | Evolution of symptom ([2]; patient 47, nocturnal heartburn, 8 weeks): ++ | Evolution of symptom ([2]; patient 49, regurgitation, 8 weeks): ++ | Evolution of symptom [3, 10]: ++ | Safety [3, 10]: +++ | Evolution of symptom [3, 11]: + | Safety [3, 11]: +++ | Evolution of symptom [3, 9]: +++ | Safety [3, 9]: +++ | Evolution of symptom [3, 12]: +++ | Safety [3, 12]: +++ | Evolution of symptom ([3]; patient 35, heartburn, 8 weeks): +++ | Safety ([3]; patient 35, heartburn, 8 weeks): +++ | Evolution of symptom [3, 13]: +++ | Safety [3, 13]: ++ | Evolution of symptom [3, 14]: +++ | Safety [3, 14]: ++ | Evolution of symptom [3, 15]: +++ | Safety [3, 15]: +++ | Evolution of symptom [3, 16]: ++ | Safety [3, 16]: ++ | Evolution of symptom ([3]; patient 41, heartburn, 6 weeks): +++ | Safety ([3]; patient 41, heartburn, 6 weeks): +++ | Evolution of symptom [3, 17]: ++ | Safety [3, 17]: +++ | Evolution of symptom ([3]; patient 44, nausea, 10 weeks): +++ | Safety ([3]; patient 44, nausea, 10 weeks): +++ | Evolution of symptom [3, 18]: +++ | Safety [3, 18]: ++ | Evolution of symptom ([3]; patient 47, nausea, 4 weeks): ++ | Safety ([3]; patient 47, nausea, 4 weeks): +++ | Evolution of symptom ([3]; patient 49, nausea, 8 weeks): ++ | Safety ([3]; patient 49, nausea, 8 weeks): +++ | Endoscopic improvement rating, patients rated A healed [4, 19]: 20 | Endoscopic improvement rating, patients rated B markedly decreased [4, 19]: 1 | Endoscopic improvement rating, patients rated C moderately decreased [4, 19]: 0 | Endoscopic improvement rating, patients rated D slightly decreased [4, 19]: 0 | Endoscopic improvement rating, patients rated E not changed [4, 19]: 1 | Endoscopic improvement rating, patients rated F aggravated [4, 19]: 0 | Endoscopic improvement rating, patients rated A healed [4, 20]: 21 | Endoscopic improvement rating, patients rated B markedly decreased [4, 20]: 0 | Endoscopic improvement rating, patients rated C moderately decreased [4, 20]: 0 | Endoscopic improvement rating, patients rated D slightly decreased [4, 20]: 0 | Endoscopic improvement rating, patients rated E not changed [4, 20]: 1 | Endoscopic improvement rating, patients rated F aggravated [4, 20]: 0 | Endoscopic improvement rating, patients rated A healed [4, 21]: 21 | Endoscopic improvement rating, patients rated B markedly decreased [4, 21]: 0 | Endoscopic improvement rating, patients rated C moderately decreased [4, 21]: 0 | Endoscopic improvement rating, patients rated D slightly decreased [4, 21]: 0 | Endoscopic improvement rating, patients rated E not changed [4, 21]: 1 | Endoscopic improvement rating, patients rated F aggravated [4, 21]: 0 | Endoscopic improvement rating, patients rated A healed [4, 22]: 23 | Endoscopic improvement rating, patients rated B markedly decreased [4, 22]: 2 | Endoscopic improvement rating, patients rated C moderately decreased [4, 22]: 0 | Endoscopic improvement rating, patients rated D slightly decreased [4, 22]: 0 | Endoscopic improvement rating, patients rated E not changed [4, 22]: 0 | Endoscopic improvement rating, patients rated F aggravated [4, 22]: 0 | Endoscopic improvement rating, patients rated A healed [4, 23]: 24 | Endoscopic improvement rating, patients rated B markedly decreased [4, 23]: 0 | Endoscopic improvement rating, patients rated C moderately decreased [4, 23]: 0 | Endoscopic improvement rating, patients rated D slightly decreased [4, 23]: 0 | Endoscopic improvement rating, patients rated E not changed [4, 23]: 0 | Endoscopic improvement rating, patients rated F aggravated [4, 23]: 0 | Endoscopic improvement rating, patients rated A healed [4, 24]: 24 | Endoscopic improvement rating, patients rated B markedly decreased [4, 24]: 0 | Endoscopic improvement rating, patients rated C moderately decreased [4, 24]: 0 | Endoscopic improvement rating, patients rated D slightly decreased [4, 24]: 0 | Endoscopic improvement rating, patients rated E not changed [4, 24]: 0 | Endoscopic improvement rating, patients rated F aggravated [4, 24]: 0 | Endoscopic improvement rating, patients rated A healed [4, 25]: 24 | Endoscopic improvement rating, patients rated B markedly decreased [4, 25]: 0 | Endoscopic improvement rating, patients rated C moderately decreased [4, 25]: 0 | Endoscopic improvement rating, patients rated D slightly decreased [4, 25]: 0 | Endoscopic improvement rating, patients rated E not changed [4, 25]: 0 | Endoscopic improvement rating, patients rated F aggravated [4, 25]: 0 | patients not healed after 8 weeks treatment ([4]; both studies, 10 mg tablet orally once a day): Only one patient was not healed | efficacy in the treatment of gastroesophageal reflux disease, overall ([4]; both studies, healing obtained with a 4 week treatment): very effective
